≈ marks a conversion by molar mass, not a printed value.
Columns and labels:
S. aureus M 126 = test: Antimicrobial activities (MIC, agar dilution); type: cell-based; conditions: Staphylococcus aureus, M126; S. aureus M 126, Methicillin-hyperresistant strain; Sensitivity Disk agar-N+5% Horse blood; 10^6 CFU/ml; read-out: minimum inhibiting concentrations (MIC)
Procedure: (§1) The minimum inhibiting concentrations (MIC, μg/ml) of representative compounds, among the novel carbapenem derivatives of the present invention, to various pathogenic bacteria were measured in accordance with the method described in CHEMOTHERAPY, vol. 16, No. 1, 99, 1968. The culture medium for the measurement is Sensitivity Disk agar-N+5% Horse blood, and the amount of inoculants used is 10^6 CFU/ml.

C. freundii GN 346 = test: Antimicrobial activities (MIC, agar dilution); type: cell-based; conditions: Citrobacter freundii, GN346, Sensitivity Disk agar-N+5% Horse blood, 10^6 CFU/ml, read-out: minimum inhibiting concentrations (MIC)
Procedure: as §1

[1] = test system: S. epidermidis ATCC 14990; test: Antimicrobial activities (MIC, agar dilution); type: cell-based; conditions: Staphylococcus epidermidis, ATCC14990, Sensitivity Disk agar-N+5% Horse blood, 10^6 CFU/ml, read-out: minimum inhibiting concentrations (MIC)
Procedure: as §1

H. influenzae PRC 44 = test: Antimicrobial activities (MIC, agar dilution); type: cell-based; conditions: Haemophilus influenzae, PRC44, Sensitivity Disk agar-N+5% Horse blood, 10^6 CFU/ml, read-out: minimum inhibiting concentrations (MIC)
Procedure: as §1

K. pneumoniae PC 1602 = test: Antimicrobial activities (MIC, agar dilution); type: cell-based; conditions: Klebsiella pneumoniae, PC1602, Sensitivity Disk agar-N+5% Horse blood, 10^6 CFU/ml, read-out: minimum inhibiting concentrations (MIC)
Procedure: as §1

H. influenzae PRC 2 = test: Antimicrobial activities (MIC, agar dilution); type: cell-based; conditions: Haemophilus influenzae, PRC2, Sensitivity Disk agar-N+5% Horse blood, 10^6 CFU/ml, read-out: minimum inhibiting concentrations (MIC)
Procedure: as §1

E. hirae ATCC 8043 = test: Antimicrobial activities (MIC, agar dilution); type: cell-based; conditions: Enterococcus hirae, ATCC8043, Sensitivity Disk agar-N+5% Horse blood, 10^6 CFU/ml, read-out: minimum inhibiting concentrations (MIC)
Procedure: as §1

S. aureus 209P JC-1 = test: Antimicrobial activities (MIC, agar dilution); type: cell-based; conditions: Staphylococcus aureus, Sensitivity Disk agar-N+5% Horse blood, 10^6 CFU/ml, read-out: minimum inhibiting concentrations (MIC)
Procedure: as §1

E. faecalis W-73 = test: Antimicrobial activities (MIC, agar dilution); type: cell-based; conditions: Enterococcus faecalis, W73, Sensitivity Disk agar-N+5% Horse blood, 10^6 CFU/ml, read-out: minimum inhibiting concentrations (MIC)
Procedure: as §1

B. catarrhalis W-0500 = test: Antimicrobial activities (MIC, agar dilution); type: cell-based; conditions: Moraxella catarrhalis, W0500, Sensitivity Disk agar-N+5% Horse blood, 10^6 CFU/ml, read-out: minimum inhibiting concentrations (MIC)
Procedure: as §1

P. vulgaris GN 7919 = test: Antimicrobial activities (MIC, agar dilution); type: cell-based; conditions: Proteus vulgaris, GN7919, Sensitivity Disk agar-N+5% Horse blood, 10^6 CFU/ml, read-out: minimum inhibiting concentrations (MIC)
Procedure: as §1

S. pneumoniae PRC 9 = test: Antimicrobial activities (MIC, agar dilution); type: cell-based; conditions: Streptococcus pneumoniae, PRC9; S. pneumoniae PRC 9, Penicillin-hyperresistant strain; Sensitivity Disk agar-N+5% Horse blood; 10^6 CFU/ml; read-out: minimum inhibiting concentrations (MIC)
Procedure: as §1

E. coli NIHJ JC-2 = test: Antimicrobial activities (MIC, agar dilution); type: cell-based; conditions: Escherichia coli, NIHJJC2, Sensitivity Disk agar-N+5% Horse blood, 10^6 CFU/ml, read-out: minimum inhibiting concentrations (MIC)
Procedure: as §1

mice (ICR, male) = test: Acute toxicity test; type: in vivo; conditions: intravenous, 2000 mg/kg, three mice
Procedure: The compound of Example 5 according to the present invention was intraveneously administered at a dose of 2000 mg/kg to mice (ICR, male) (one group consisting of three mice).

SMILES	MIC (S. aureus M 126)	MIC (C. freundii GN 346)	MIC [1]	MIC (H. influenzae PRC 44)	MIC (K. pneumoniae PC 1602)	MIC (H. influenzae PRC 2)	MIC (E. hirae ATCC 8043)	MIC (S. aureus 209P JC-1)	MIC (E. faecalis W-73)	MIC (B. catarrhalis W-0500)	MIC (P. vulgaris GN 7919)	MIC (S. pneumoniae PRC 9)	MIC (E. coli NIHJ JC-2)	acute toxicity: survival (mice (ICR, male))
C[C@@H](O)[C@H]1C(=O)N2C(C(=O)O)=C(SCCN=CN)C[C@H]12 [Compound A, Imipenem, reference compound]	25 µg/mL (≈ 83.5 µM)	0.2 µg/mL (≈ 0.668 µM)	< 0.025 µg/mL	12.5 µg/mL (≈ 41.8 µM)	0.2 µg/mL (≈ 0.668 µM)	0.78 µg/mL (≈ 2.61 µM)	0.78 µg/mL (≈ 2.61 µM)	< 0.025 µg/mL	0.78 µg/mL (≈ 2.61 µM)	0.05 µg/mL (≈ 0.167 µM)	0.1 µg/mL (≈ 0.334 µM)	0.2 µg/mL (≈ 0.668 µM)	0.1 µg/mL (≈ 0.334 µM)	
C[C@@H](O)[C@H]1C(=O)N2C(C(=O)[O-])=C(c3cn4cncc4s3)[C@H](C)[C@H]12.[Na+] [Compound B, Sodium (1S,5R,6S)-6-((1R)-1-hydroxyethyl)-2-(imidazo[5,1-b]thiazol-2-yl)-1-methyl-1-carbapen-2-em-3-carboxylate, reference compound]	6.25 µg/mL	1.56 µg/mL	< 0.025 µg/mL	0.2 µg/mL	0.1 µg/mL	< 0.025 µg/mL	0.39 µg/mL	< 0.025 µg/mL	0.39 µg/mL	0.1 µg/mL	0.1 µg/mL	0.2 µg/mL	0.2 µg/mL	
C[C@@H](O)[C@H]1C(=O)N2C(C(=O)[O-])=C(c3cn4cnc(SCCN)c4s3)[C@H](C)[C@H]12.[Na+] [Example 5, Sodium (1S,5R,6S)-2-[7-(2-aminoethyl)thioimidazo[5,1-b]thiazol-2-yl]-6-((1R)-1-hydroxyethyl)-1-methyl-1-carbapen-2-em-3-carboxylate]	1.56 µg/mL	1.56 µg/mL	< 0.025 µg/mL	0.2 µg/mL	0.1 µg/mL	0.05 µg/mL	0.39 µg/mL	< 0.025 µg/mL	0.2 µg/mL	0.05 µg/mL	0.2 µg/mL	0.05 µg/mL	0.1 µg/mL	all the mice survived
C[C@@H](O)[C@H]1C(=O)N2C(C(=O)[O-])=C(c3cn4cnc(SCCF)c4s3)[C@H](C)[C@H]12.[Na+] [Example 14, Sodium (1S,5R,6S)-2-[7-(2-fluoroethyl)thioimidazo[5,1-b]thiazol-2-yl]-6-((1R)-1-hydroxyethyl)-1-methyl-1-carbapen-2-em-3-carboxylate]	0.78 µg/mL		< 0.025 µg/mL	0.025 µg/mL	1.56 µg/mL	< 0.025 µg/mL	0.2 µg/mL	< 0.025 µg/mL	0.2 µg/mL	0.1 µg/mL	0.78 µg/mL	0.05 µg/mL	1.56 µg/mL	
C[C@@H](O)[C@H]1C(=O)N2C(C(=O)[O-])=C(c3cn4cnc(SCCNC(=N)N)c4s3)[C@H](C)[C@H]12.[Na+] [Example 20, Sodium (1S,5R,6S)-2-[7-(2-guanidinoethyl)thioimidazo[5,1-b]thiazol-2-yl]-6-((1R)-1-hydroxyethyl)-1-methyl-1-carbapen-2-em-3-carboxylate]	0.78 µg/mL	1.56 µg/mL	< 0.025 µg/mL	0.1 µg/mL	0.39 µg/mL	0.05 µg/mL	0.2 µg/mL	< 0.025 µg/mL	0.2 µg/mL	0.05 µg/mL	0.39 µg/mL	0.05 µg/mL	0.2 µg/mL	
